This experiment relates to demyelinated cerebellar brain slices. Put plainly: Ex vivo (re)myelination in lysolecithin-demyelinated cerebellar brain slices. It counts as cell-based, mouse. To be noted: 14-days treatment, vs vehicle. Here is the method:
FIG. 6: Inhibition of PDE4 by roflumilast induces (re)myelination in demyelinated brain slices. Mouse brain slices ([…]) were trimmed from the cerebellum of p10 C57bl6 pups. After 1 week in culture, brain slices were demyelinated using lysolecithin (16 h) and subsequently treated for 14 days with 5 μM roflumilast or vehicle (0.1% DMSO). Treatment was repeated every 2 days with a 60% medium replenishment. Brain slices were fixated using 4% paraformaldehyde and stained for MBP, neurofilament and counterstained with the nuclear DAPI dye. Three slices per animal were quantified for % myelinated axons (n:2/group).
FIG. 7: Inhibition of PDE4D by gebr32a induces (re)myelination in demyelinated brain slices. Mouse brain slices (370 μM) were trimmed from the cerebellum of p10 C57bl6 pups. […] Three slices per animal were quantified for % myelinated axons (n:2/group). […]
Organotypic cerebellar brain slices were fixed in 4% paraformaldehyde at room temperature for 40 minutes and incubated with primary antibodies diluted in blocking buffer (5% bovine serum albumin (BSA) and 0.05% Tween 20 in PBS) for 4 h at room temperature. […] Quantification was done using Fiji ImageJ by counting the percentage of myelinated axons crossing a predefined cross-sectional path.

Take `OC(CN1CCOCC1)Cn1ccc(-c2ccc(OC(F)F)c(OC3CCCC3)c2)n1` (centres unmarked) [Gebr32a]: the “MBP alignment with neurofilament (% myelinated axons)” value (0.5 μM) is on record as “four-fold increase”.

As for `O=C(Nc1c(Cl)cncc1Cl)c1ccc(OC(F)F)c(OCC2CC2)c1` [roflumilast], the “MBP alignment with neurofilament (% myelinated axons)” value (5 μM) is “four-fold increase”.

These data come from patent US20210145838A1, “SELECTIVE PDE4D INHIBITORS AGAINST DEMYELINATING DISEASES” (Universiteit Hasselt, priority 2018, published 2021).
